Assay [1] concerns Hedgehog signaling pathway (Gli Reporter - NIH3T3 cell line). In words: Hedgehog Reporter Assay (Gli-Reporter, luciferase, mSHH stimulated). The format is cell-based, murine. The note with it: Mus musculus; Gli Reporter NIH3T3 cells, 1 μg/ml mSHH, 24 h. How it is done: In order to investigate the potency of test compounds to inhibit the Hedgehog signaling pathway, a Gli-Reporter assay was performed. The “Gli Reporter-NIH3T3” cell line contains the firefly luciferase gene under the control of Gli responsive elements stably integrated into murine NIH3T3 cells (cells purchased from AMS Biotechnology ltd., 184 Milton Park, Abingdon OX14 4SE, U.K.). The luciferase expression correlates with activation of the hedgehog signaling pathway. This cell line is validated for its response to stimulation with murine Sonic Hedgehog and to treatment with inhibitors of the hedgehog signaling pathway. A multiplexed viability assay was used to discriminate inhibition on the pathway activity from cell toxicity. Growth Medium: DMEM (Dulbecco's Modified Eagle Medium); 10% Fetal Calf Serum; 1% Penicillin/Streptomycin; 500 μg/ml Geneticin (G418 Stock 50 mg/ml). Assay Medium: Opti-MEM® Reduced Serum Medium; 0.5% Calf Serum; 1% non-essential amino acids; 1 mM Na-pyruvate; 10 mM HEPES; 1% Penicillin/Streptomycin. 25,000 cells per well were seeded into a white 96 well plate in 100 μl growth medium and incubated over night at 37° C. and 5% CO2. After removing the supernatant the test compounds and controls were added in different concentrations in a final volume of 45 μl and incubated for 1 h at 37° C. and 5% CO2. For the stimulation of the Hedgehog pathway 5 μl of 10 μg/ml concentrated murine SHH (or mSHH; murine sonic hedgehog protein) was added to the cells. A final concentration of 1 μg/ml mSHH and 0.1% DMSO was reached per well. After incubation for 24 h at 37° C. the cells were investigated for viability and reporter activity. Viability: For the determination of the viability of the treated cells the CellTiter-FluorTM Kit from Promega comprising the fluorogenic, cell-permeant peptide substrate ([…]-aminofluorocoumarin GF-AFC was used. Roughly, only proteases of viable cells are able to cleave the GF-AFC. By this cleavage the fluorescent AFC is set free and can be detected in a fluorescence reader. For this assay 10 μl of GF-AFC substrate (CellTiter-FluorTM, Promega #G6082) was diluted in 2 ml assay buffer from the CellTiter-FluorTM Kit and 10 μl of this dilution was added per well to the cells and incubated for 30 min at 37° C. The fluorescence was measured with an excitation of 380-400 nm and an emission of 505 nm. Reporter activity: The firefly luciferase reporter activity was detected with the ONE-GloTM Luciferase Assay System from Promega. For this assay 50 μl ONE-Glo luciferase reagent (Promega #E6120, contains cell lysis buffer and luciferin) was added to each well and incubated at room temperature for 5 min. Luminescence was detected in a plate reader and served as a measure for reporter activity.
In general terms: A reporter such as luciferase makes a cellular process visible.

Another assay addresses DYRK1B (Homo sapiens (Human), UniProt Q9Y463). In words: DYRK1B Kinase Assay (33P ATP, DYRKtide substrate, Reaction Biology Corp.). In kind it is biochemical. The note with it: 0.3 nM DYRK1B, 20 μM DYRKtide, 10 μM ATP, 25° C., 120 min. The protocol:
The assay was carried out by Reaction Biology Corp., […], Pa., USA according to specifications by Reaction Biology Corp., as detailed herein below and further described in Anastassiadis et al., Nature Biotechnology, 29 (2011) 1039-1045. The substrate DYRKtide (synthetic peptide RRRFRPASPLRGPPK) was dissolved in freshly prepared Base Reaction Buffer (20 mM Hepes (pH 7.5), 10 mM MgCl2, 1 mM EGTA, 0.02% Brij35, 0.02 mg/ml BSA, 0.1 mM Na3VO4, 2 mM DTT, 1% DMSO) at a concentration of 20 μM. DYRK1B was added to the substrate solution in a concentration of 0.3 nM and gently mixed. Dilution series of the compounds according to the present invention in DMSO were prepared. Each dilution was added to a batch of the above reaction mix, followed 20 min later by addition of a mixture of ATP and ^33P ATP (specific activity 0.01 μCi/μl final) to a final concentration of 10 μM. Reactions were carried out at 25° C. for 120 min, followed by spotting the reactions onto P81 ion exchange filter paper. Unbound phosphate was removed by extensive washing of the filters in 0.75% phosphoric acid. […] IC50 values and curve fits were obtained using Prism (Graph Pad Software). DYRK1B used in the above assays are further described in the below table: [table] Exemplary compound dilution series, final concentrations of compound in the assay vessel; the individual concentrations and the range of concentrations covered by the dilution series may differ for each compound, as long as enough data points are obtained to determine the compound's IC50: DYRK 1[…].

As usually defined, the IC50 is the concentration that inhibits the measured activity by half. The low end stands for higher potency, the high end for lower potency.

DYRK1B, sequence (Q9Y463 whole entry): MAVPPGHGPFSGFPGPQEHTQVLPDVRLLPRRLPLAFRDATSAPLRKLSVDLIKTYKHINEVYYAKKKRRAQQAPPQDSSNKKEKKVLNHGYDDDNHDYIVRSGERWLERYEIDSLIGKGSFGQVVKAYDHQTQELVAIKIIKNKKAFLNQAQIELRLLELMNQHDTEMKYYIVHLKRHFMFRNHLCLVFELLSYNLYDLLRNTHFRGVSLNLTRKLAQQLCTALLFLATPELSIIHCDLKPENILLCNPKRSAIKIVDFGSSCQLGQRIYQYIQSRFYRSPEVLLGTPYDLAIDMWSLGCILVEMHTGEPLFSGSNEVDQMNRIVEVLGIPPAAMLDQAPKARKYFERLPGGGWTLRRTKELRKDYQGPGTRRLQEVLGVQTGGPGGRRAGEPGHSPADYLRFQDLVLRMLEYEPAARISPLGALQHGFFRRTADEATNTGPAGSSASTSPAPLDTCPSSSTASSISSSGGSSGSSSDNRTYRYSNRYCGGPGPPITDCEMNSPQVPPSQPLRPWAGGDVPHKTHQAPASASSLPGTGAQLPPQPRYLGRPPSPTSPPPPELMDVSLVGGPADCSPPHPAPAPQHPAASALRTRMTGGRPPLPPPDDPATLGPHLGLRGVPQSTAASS

As to `O=C(Nc1nnc(C(=O)N2CCOCC2)[nH]1)c1csc(-c2ccc3c(c2)CCO3)n1` [Compound 26, 2-(2,3-Dihydrobenzofuran-5-yl)-N-(5-(morpholine-4-carbonyl)-4H-1,2,4-triazol-3-yl)thiazole-4-carboxamide], the concentration for half-maximal inhibition (IC50) in assay [1] is 3 to 10 µM; against DYRK1B it was 0.085 µM.

In the case of `O=C(Nc1nc2cc(C(=O)N3CCOCC3)ccc2[nH]1)c1csc(-c2ccc3c(c2)CCO3)n1` [Compound 10, 2-(2,3-Dihydrobenzofuran-5-yl)-N-(5-(morpholine-4-carbonyl)-1H-benzo[d]imidazol-2-yl)thiazole-4-carboxamide], the IC50 was under 1 µM in assay [1] and 0.00372 µM at DYRK1B.

Regarding `O=C(Nc1nc(-c2ccco2)n[nH]1)c1csc(-c2ccc3c(c2)CCO3)n1` [Compound 46, 2-(2,3-Dihydrobenzofuran-5-yl)-N-(3-(furan-2-yl)-1H-1,2,4-triazol-5-yl)thiazole-4-carboxamide], the results for the IC50 (in assay [1]; on DYRK1B) were 3 to 10 µM and 0.0153 µM, respectively.

`CN1CCN(C(=O)c2nnc(NC(=O)c3csc(-c4ccc5c(c4)CCO5)n3)[nH]2)CC1` [Compound 27, 2-(2,3-Dihydrobenzofuran-5-yl)-N-(5-(4-methylpiperazine-1-carbonyl)-4H-1,2,4-triazol-3-yl)thiazole-4-carboxamide]: the IC50 in assay [1] was 3 to 10 µM; on DYRK1B it was 0.0498 µM.

As to `CS(=O)(=O)c1ccc2[nH]c(NC(=O)c3csc(-c4ccc5c(c4)CCO5)n3)nc2c1` [Compound 3, 2-(2,3-Dihydrobenzofuran-5-yl)-N-(5-(methylsulfonyl)-1H-benzo[d]imidazol-2-yl)thiazole-4-carboxamide], the IC50 was under 1 µM in assay [1] and 0.00149 µM against DYRK1B.

Take `O=C(Nc1nc2cc(Cl)c(F)cc2[nH]1)c1csc(-c2ccc3c(c2)CCO3)n1` [Compound 2, N-(5-Chloro-6-fluoro-1H-benzo[d]imidazol-2-yl)-2-(2,3-dihydrobenzofuran-5-yl)thiazole-4-carboxamide]: the IC50 in assay [1] was 1 to 3 µM; on DYRK1B, 0.0482 µM.

As for `Cc1n[nH]c(NC(=O)c2csc(-c3ccc4c(c3)CCO4)n2)n1` [Compound 44, 2-(2,3-Dihydrobenzofuran-5-yl)-N-(3-methyl-1H-1,2,4-triazol-5-yl)thiazole-4-carboxamide], the values for the IC50 (in assay [1]; on DYRK1B) were 3 to 10 µM and 0.0601 µM, respectively.

For the compound `CN1CCN(c2ccc3nc(NC(=O)c4csc(-c5ccc6c(c5)CCO6)n4)sc3c2)CC1` [Compound 41, 2-(2,3-Dihydrobenzofuran-5-yl)-N-(6-(4-methylpiperazin-1-yl)benzo[d]thiazol-2-yl)thiazole-4-carboxamide], the results for the IC50 (in assay [1]; at DYRK1B) were 3 to 10 µM and 0.0195 µM, respectively.

Turning to `CNC(=O)c1n[nH]c(NC(=O)c2csc(-c3ccc4c(c3)CCO4)n2)n1` [Compound 19, 2-(2,3-Dihydrobenzofuran-5-yl)-N-(3-(methylcarbamoyl)-1H-1,2,4-triazol-5-yl)thiazole-4-carboxamide], the concentration for half-maximal inhibition (IC50) in assay [1] is 1 to 3 µM; on DYRK1B, 0.00968 µM.

As to `O=C(NCC1CCCO1)c1ccc2[nH]c(NC(=O)c3csc(-c4ccc5c(c4)CCO5)n3)nc2c1` (stereo not drawn) [Compound 35, 2-(2,3-Dihydrobenzofuran-5-yl)-N-(5-(((tetrahydrofuran-2-yl)methyl)carbamoyl)-1H-benzo[d]imidazol-2-yl)thiazole-4-carboxamide], the IC50 in assay [1] was under 1 µM; at DYRK1B it was under 0.0005 µM.

`O=C(Nc1nc2cc(C(=O)N3CCN(CC4CCCO4)CC3)ccc2[nH]1)c1csc(-c2ccc3c(c2)CCO3)n1` (stereo not drawn) [Compound 8, 2-(2,3-Dihydrobenzofuran-5-yl)-N-(5-(4-((tetrahydrofuran-2-yl)methyl)piperazine-1-carbonyl)-1H-benzo[d]imidazol-2-yl)thiazole-4-carboxamide]: the concentration for half-maximal inhibition (IC50) was under 1 µM in assay [1] and 0.00311 µM on DYRK1B.

Consider `COCCNC(=O)c1ccc2[nH]c(NC(=O)c3csc(-c4ccc5c(c4)CCO5)n3)nc2c1` [Compound 23, 2-(2,3-Dihydrobenzofuran-5-yl)-N-(5-((2-methoxyethyl)carbamoyl)-1H-benzo[d]imidazol-2-yl)thiazole-4-carboxamide], for which the IC50 was under 1 µM in assay [1] and 0.000699 µM on DYRK1B.

Consider `O=C(Nc1nc(-c2cccnc2)n[nH]1)c1csc(-c2ccc3c(c2)CCO3)n1` [Compound 45, 2-(2,3-Dihydrobenzofuran-5-yl)-N-(3-(pyridin-3-yl)-1H-1,2,4-triazol-5-yl)thiazole-4-carboxamide], for which the IC50 is 1 to 3 µM in assay [1] and 0.00281 µM on DYRK1B.

`N#Cc1ccc2[nH]c(NC(=O)c3csc(-c4ccc5c(c4)CCO5)n3)nc2c1` [Compound 1, N-(5-Cyano-1H-benzo[d]imidazol-2-yl)-2-(2,3-dihydrobenzofuran-5-yl)thiazole-4-carboxamide]: the IC50 in assay [1] was 1 to 3 µM; at DYRK1B, 0.00138 µM.

Take `COc1cccc(-c2c[nH]c(NC(=O)c3csc(-c4ccc5c(c4)CCO5)n3)n2)c1` [Compound 13, 2-(2,3-Dihydrobenzofuran-5-yl)-N-(4-(3-methoxyphenyl)-1H-imidazol-2-yl)thiazole-4-carboxamide]: the IC50 in assay [1] was 1 to 3 µM; against DYRK1B it was 0.111 µM.

Regarding `O=C(Nc1nc(SCc2ccccc2)n[nH]1)c1csc(-c2ccc3c(c2)CCO3)n1` [Compound 32, N-(3-(Benzylthio)-1H-1,2,4-triazol-5-yl)-2-(2,3-dihydrobenzofuran-5-yl)thiazole-4-carboxamide], the values for the IC50 (in assay [1]; against DYRK1B) were 3 to 10 µM and 1.35 µM, respectively.

Regarding `O=C(Nc1nnc(C(=O)N2CCCC2)[nH]1)c1csc(-c2ccc3c(c2)CCO3)n1` [Compound 28, 2-(2,3-Dihydrobenzofuran-5-yl)-N-(5-(pyrrolidine-1-carbonyl)-4H-1,2,4-triazol-3-yl)thiazole-4-carboxamide], the values for the IC50 (in assay [1]; on DYRK1B) were 3 to 10 µM and 0.0471 µM, respectively.

For the compound `COc1ccc2[nH]c(NC(=O)c3csc(-c4ccc5c(c4)CCO5)n3)nc2c1` [Compound 4, 2-(2,3-Dihydrobenzofuran-5-yl)-N-(5-methoxy-1H-benzo[d]imidazol-2-yl)thiazole-4-carboxamide], the IC50 in assay [1] was 3 to 10 µM; against DYRK1B, 0.0139 µM.

In the case of `O=C(Nc1nc(C(=O)NC2CC2)n[nH]1)c1csc(-c2ccc3c(c2)CCO3)n1` [Compound 25, N-(3-(Cyclopropylcarbamoyl)-1H-1,2,4-triazol-5-yl)-2-(2,3-dihydrobenzofuran-5-yl)thiazole-4-carboxamide], the 50% inhibitory concentration (IC50) in assay [1] was 1 to 3 µM; on DYRK1B, 0.00351 µM.

For the compound `O=C(Nc1nc2cc(OC(F)(F)F)ccc2[nH]1)c1csc(-c2ccc3c(c2)CCO3)n1` [Compound 14, 2-(2,3-Dihydrobenzofuran-5-yl)-N-(6-(trifluoromethoxy)-1H-benzo[d]imidazol-2-yl)thiazole-4-carboxamide], the IC50 in assay [1] was 1 to 3 µM; on DYRK1B it was 0.0294 µM.

As for `O=C(Nc1nc2cc(C(=O)N3CCCC3)ccc2[nH]1)c1csc(-c2ccc3c(c2)CCO3)n1` [Compound 22, 2-(2,3-Dihydrobenzofuran-5-yl)-N-(5-(pyrrolidine-1-carbonyl)-1H-benzo[d]imidazol-2-yl)thiazole-4-carboxamide], the IC50 in assay [1] is under 1 µM; against DYRK1B, 0.000852 µM.
